Key:
Assay type in all cases: biochemical
Settings in all cases: 20 nM
[1] = target: T1, PDE4A1A (Homo sapiens, UniProt P27815); assay: PDE4 inhibitory activity assay (FAM-cAMP enzymatic reaction), PDE4A1A
T1 construct: purchased BPS 60040
How it was run: (§1)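 Human PDE4A1A, PDE4B1 or PDE4D2 preincubated with compound 15 min at room temperature, then FAM-cAMP substrate added; reaction 30 min at room temperature before stop solution and further 60 min. Fluorescence read on multilabel counter; IC50 fitted from inhibition rates.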

[2] = target: PDE4D2 (Homo sapiens, UniProt Q08499); assay: PDE4 inhibitory activity assay (FAM-cAMP enzymatic reaction), PDE4D2
How it was run: as §1

[3] = target: T2, PDE4B1 (Homo sapiens, UniProt Q07343); assay: PDE4 inhibitory activity assay (FAM-cAMP enzymatic reaction), PDE4B1
T2 construct: purchased BPS 60041
How it was run: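 Each isoform is incubated with test compound for 15 min at room temperature before FAM-cAMP substrate starts a 30-min reaction.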

PDE4D2, sequence (Q08499 303-809): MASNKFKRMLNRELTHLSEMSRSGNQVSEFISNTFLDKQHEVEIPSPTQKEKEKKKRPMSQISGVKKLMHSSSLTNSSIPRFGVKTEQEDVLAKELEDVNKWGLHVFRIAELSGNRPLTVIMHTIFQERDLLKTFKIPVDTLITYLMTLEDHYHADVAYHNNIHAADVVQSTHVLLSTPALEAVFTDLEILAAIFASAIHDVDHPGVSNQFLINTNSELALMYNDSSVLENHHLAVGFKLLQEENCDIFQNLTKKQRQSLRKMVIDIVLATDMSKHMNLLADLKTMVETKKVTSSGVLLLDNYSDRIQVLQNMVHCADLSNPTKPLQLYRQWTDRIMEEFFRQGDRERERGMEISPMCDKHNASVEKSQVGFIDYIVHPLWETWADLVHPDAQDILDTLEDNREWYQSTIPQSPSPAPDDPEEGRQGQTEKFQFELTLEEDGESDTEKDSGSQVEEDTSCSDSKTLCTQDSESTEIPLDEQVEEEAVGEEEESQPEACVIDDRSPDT
T2 sequence (Q07343 whole entry): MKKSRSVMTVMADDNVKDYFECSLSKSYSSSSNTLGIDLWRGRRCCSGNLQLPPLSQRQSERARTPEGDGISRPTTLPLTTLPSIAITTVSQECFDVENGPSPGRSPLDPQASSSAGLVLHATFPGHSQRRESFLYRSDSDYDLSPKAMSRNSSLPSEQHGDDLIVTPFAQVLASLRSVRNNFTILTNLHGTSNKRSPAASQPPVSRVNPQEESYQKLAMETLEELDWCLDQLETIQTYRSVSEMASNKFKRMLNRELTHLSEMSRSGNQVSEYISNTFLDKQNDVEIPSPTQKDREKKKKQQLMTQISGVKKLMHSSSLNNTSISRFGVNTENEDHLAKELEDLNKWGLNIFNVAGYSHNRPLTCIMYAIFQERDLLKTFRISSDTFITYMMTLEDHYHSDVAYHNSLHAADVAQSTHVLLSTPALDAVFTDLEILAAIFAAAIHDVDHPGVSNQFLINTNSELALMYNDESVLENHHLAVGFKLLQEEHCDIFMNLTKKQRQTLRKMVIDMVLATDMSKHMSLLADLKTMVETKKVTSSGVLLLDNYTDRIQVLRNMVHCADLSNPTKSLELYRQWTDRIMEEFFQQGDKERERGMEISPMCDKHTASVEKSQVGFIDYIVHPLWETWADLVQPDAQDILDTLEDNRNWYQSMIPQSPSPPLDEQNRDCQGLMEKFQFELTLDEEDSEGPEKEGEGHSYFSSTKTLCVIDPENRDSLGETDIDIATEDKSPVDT
T1 sequence (P27815 1-647 isoform P27815-4): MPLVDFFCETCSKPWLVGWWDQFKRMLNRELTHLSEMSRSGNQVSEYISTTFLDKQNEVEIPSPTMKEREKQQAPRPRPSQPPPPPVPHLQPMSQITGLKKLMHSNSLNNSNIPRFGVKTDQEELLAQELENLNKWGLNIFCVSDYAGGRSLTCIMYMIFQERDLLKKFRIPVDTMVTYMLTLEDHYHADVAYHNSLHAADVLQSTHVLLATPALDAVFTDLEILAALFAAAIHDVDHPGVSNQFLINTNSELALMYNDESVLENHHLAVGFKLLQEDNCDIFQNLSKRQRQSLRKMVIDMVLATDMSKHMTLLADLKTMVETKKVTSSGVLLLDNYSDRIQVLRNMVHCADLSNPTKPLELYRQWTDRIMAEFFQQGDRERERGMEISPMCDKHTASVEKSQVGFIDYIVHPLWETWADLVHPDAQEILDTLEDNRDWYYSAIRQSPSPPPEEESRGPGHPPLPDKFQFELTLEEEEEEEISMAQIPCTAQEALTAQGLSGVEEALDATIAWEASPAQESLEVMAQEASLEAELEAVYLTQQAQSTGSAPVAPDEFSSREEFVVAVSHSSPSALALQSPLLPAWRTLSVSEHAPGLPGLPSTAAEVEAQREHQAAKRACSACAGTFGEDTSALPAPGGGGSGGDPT

CCOc1ccccc1-c1ccc2c(c1)[nH]c(=O)n2[C@@H](CS(C)(=O)=O)c1ccc(OC)c(OCC)n1 [Ex. 193, (R)-1-(1-(6-ethoxy-5-methoxypyridin-2-yl)-2-(methylsulfonyl)ethyl)-5-(2-ethoxyphenyl)-1H-benzo[d]imidazol-2(3H)-one]
PDE4 A1 inhibitory effect at 20 nM [1]: −
PDE4 D2 inhibitory effect at 20 nM [2]: −
PDE4 B1 inhibitory effect at 20 nM [3]: −

CCOc1nc([C@@H](CS(C)(=O)=O)n2c(=O)[nH]c3c(C)c(-c4cc(F)ccc4OC)cnc32)ccc1OC [Ex. 44, (S)-6-(5-fluoro-2-methoxyphenyl)-3-(1-(6-ethoxy-5-methoxypyridin-2-yl)-2-(methylsulfonyl)ethyl)-7-methyl-1H-imidazo[4,5-b]pyridin-2(3H)-one]
PDE4 A1 inhibitory effect at 20 nM [1]: +
PDE4 D2 inhibitory effect at 20 nM [2]: +
PDE4 B1 inhibitory effect at 20 nM [3]: +

CCOc1nc([C@@H](CS(C)(=O)=O)n2c(=O)[nH]c3c(C)c(-c4ccccn4)cnc32)ccc1OC [Ex. 17, (S)-3-(1-(6-ethoxy-5-methoxypyridin-2-yl)-2-(methylsulfonyl)ethyl)-7-methyl-6-(pyridin-2-yl)-1H-imidazo[4,5-b]pyridin-2(3H)-one]
PDE4 A1 inhibitory effect at 20 nM [1]: +
PDE4 D2 inhibitory effect at 20 nM [2]: =
PDE4 B1 inhibitory effect at 20 nM [3]: +

CCOc1nc([C@@H](CS(C)(=O)=O)n2c(=O)n(C)c3cc(-c4ccccn4)cnc32)ccc1OC [Ex. 123, (S)-3-(1-(6-ethoxy-5-methoxypyridin-2-yl)-2-(methylsulfonyl)ethyl)-1-methyl-6-(pyridin-2-yl)-1H-imidazo[4,5-b]pyridin-2(3H)-one]
PDE4 A1 inhibitory effect at 20 nM [1]: +
PDE4 D2 inhibitory effect at 20 nM [2]: +
PDE4 B1 inhibitory effect at 20 nM [3]: +

CCOc1nc([C@@H](CS(C)(=O)=O)n2c(=O)[nH]c3c(C)c(-c4ccccc4C(C)C)cnc32)ccc1OC [Ex. 11, (S)-3-(1-(6-ethoxy-5-methoxypyridin-2-yl)-2-(methylsulfonyl)ethyl)-6-(2-isopropylphenyl)-7-methyl-1H-imidazo[4,5-b]pyridin-2(3H)-one]
PDE4 A1 inhibitory effect at 20 nM [1]: +
PDE4 D2 inhibitory effect at 20 nM [2]: +
PDE4 B1 inhibitory effect at 20 nM [3]: +

CCOc1nc([C@@H](CS(C)(=O)=O)n2c(=O)[nH]c3cc(-c4c(F)cccc4OC)ccc32)ccc1OC [Ex. 190, (S)-5-(6-fluoro-2-methoxyphenyl)-1-(1-(6-ethoxy-5-methoxypyridin-2-yl)-2-(methylsulfonyl)ethyl)-1H-benzo[d]imidazol-2(3H)-one]
PDE4 A1 inhibitory effect at 20 nM [1]: +
PDE4 D2 inhibitory effect at 20 nM [2]: +
PDE4 B1 inhibitory effect at 20 nM [3]: +

CCOc1nc([C@@H](CS(C)(=O)=O)n2c(=O)[nH]c3cc(-c4ccccc4F)ccc32)ccc1OC [Ex. 132, (S)-1-(1-(6-ethoxy-5-methoxypyridin-2-yl)-2-(methylsulfonyl)ethyl)-5-(2-fluorophenyl)-1H-benzo[d]imidazol-2(3H)-one]
PDE4 A1 inhibitory effect at 20 nM [1]: +
PDE4 D2 inhibitory effect at 20 nM [2]: +
PDE4 B1 inhibitory effect at 20 nM [3]: +

CCOc1nc([C@@H](CS(C)(=O)=O)n2c(=O)[nH]c3cc(-c4cccc(C)c4F)ccc32)ccc1OC [Ex. 177, (S)-5-(2-fluoro-3-methylphenyl)-1-(1-(6-ethoxy-5-methoxypyridin-2-yl)-2-(methylsulfonyl)ethyl)-1H-benzo[d]imidazol-2(3H)-one]
PDE4 A1 inhibitory effect at 20 nM [1]: +
PDE4 D2 inhibitory effect at 20 nM [2]: +
PDE4 B1 inhibitory effect at 20 nM [3]: +

CCOc1nc([C@@H](CS(C)(=O)=O)n2c(=O)n(C)c3cc(-c4cc(F)ccc4C)ccc32)ccc1OC [Ex. 172, (S)-5-(5-fluoro-2-methylphenyl)-1-(1-(6-ethoxy-5-methoxypyridin-2-yl)-2-(methylsulfonyl)ethyl)-3-methyl-1H-benzo[d]imidazol-2(3H)-one]
PDE4 A1 inhibitory effect at 20 nM [1]: +
PDE4 D2 inhibitory effect at 20 nM [2]: +
PDE4 B1 inhibitory effect at 20 nM [3]: +

CCOc1nc([C@@H](CS(C)(=O)=O)n2c(=O)[nH]c3cc(-c4cccc(F)c4C)ccc32)ccc1OC [Ex. 173, (S)-5-(3-fluoro-2-methylphenyl)-1-(1-(6-ethoxy-5-methoxypyridin-2-yl)-2-(methylsulfonyl)ethyl)-1H-benzo[d]imidazol-2(3H)-one]
PDE4 A1 inhibitory effect at 20 nM [1]: +
PDE4 D2 inhibitory effect at 20 nM [2]: +
PDE4 B1 inhibitory effect at 20 nM [3]: +

CCOc1nc([C@@H](CS(C)(=O)=O)n2c(=O)[nH]c3c(C)c(-c4ccccc4C(F)(F)F)cnc32)ccc1OC [Ex. 14, (S)-3-(1-(6-ethoxy-5-methoxypyridin-2-yl)-2-(methylsulfonyl)ethyl)-7-methyl-6-(2-(trifluoromethyl)phenyl)-1H-imidazo[4,5-b]pyridin-2(3H)-one]
PDE4 A1 inhibitory effect at 20 nM [1]: +
PDE4 D2 inhibitory effect at 20 nM [2]: =
PDE4 B1 inhibitory effect at 20 nM [3]: +

CCOc1nc([C@@H](CS(C)(=O)=O)n2c(=O)n(C)c3c(C)c(-c4ccccc4)cnc32)ccc1OC(F)F [Ex. 66, (S)-3-(1-(5-(difluoromethoxy)-6-ethoxypyridin-2-yl)-2-(methylsulfonyl)ethyl)-1,7-dimethyl-6-phenyl-1H-imidazo[4,5-b]pyridin-2(3H)-one]
PDE4 A1 inhibitory effect at 20 nM [1]: +
PDE4 D2 inhibitory effect at 20 nM [2]: +
PDE4 B1 inhibitory effect at 20 nM [3]: +

CCOc1nc([C@@H](CS(C)(=O)=O)n2c(=O)n(C)c3cc(-c4ccc(C)cc4C)ccc32)ccc1OC [Ex. 163, (S)-5-(2,4-dimethylphenyl)-1-(1-(6-ethoxy-5-methoxypyridin-2-yl)-2-(methylsulfonyl)ethyl)-3-methyl-1H-benzo[d]imidazol-2(3H)-one]
PDE4 A1 inhibitory effect at 20 nM [1]: +
PDE4 D2 inhibitory effect at 20 nM [2]: +
PDE4 B1 inhibitory effect at 20 nM [3]: +

CCOc1nc([C@@H](CS(C)(=O)=O)n2c(=O)[nH]c3cc(-c4ccccc4)cnc32)ccc1OC [Ex. 76, (S)-3-(1-(6-ethoxy-5-methoxypyridin-2-yl)-2-(methylsulfonyl)ethyl)-6-phenyl-1H-imidazo[4,5-b]pyridin-2(3H)-one]
PDE4 A1 inhibitory effect at 20 nM [1]: +
PDE4 D2 inhibitory effect at 20 nM [2]: +
PDE4 B1 inhibitory effect at 20 nM [3]: +

CCOc1nc([C@@H](CS(C)(=O)=O)n2c(=O)n(C)c3cc(-c4c(F)cccc4F)ccc32)ccc1OC [Ex. 155, (S)-5-(2,6-difluorophenyl)-1-(1-(6-ethoxy-5-methoxypyridin-2-yl)-2-(methylsulfonyl)ethyl)-3-methyl-1H-benzo[d]imidazol-2(3H)-one]
PDE4 A1 inhibitory effect at 20 nM [1]: +
PDE4 D2 inhibitory effect at 20 nM [2]: +
PDE4 B1 inhibitory effect at 20 nM [3]: +

CCOc1nc([C@@H](CS(C)(=O)=O)n2c(=O)[nH]c3cc(-c4ccc(F)cc4OC)ccc32)ccc1OC [Ex. 188, (S)-5-(4-fluoro-2-methoxyphenyl)-1-(1-(6-ethoxy-5-methoxypyridin-2-yl)-2-(methylsulfonyl)ethyl)-1H-benzo[d]imidazol-2(3H)-one]
PDE4 A1 inhibitory effect at 20 nM [1]: +
PDE4 D2 inhibitory effect at 20 nM [2]: +
PDE4 B1 inhibitory effect at 20 nM [3]: +

CCOc1nc([C@@H](CS(C)(=O)=O)n2c(=O)[nH]c3c(C)c(-c4ccccc4C)cnc32)ccc1OC(F)F [Ex. 64, (S)-3-(1-(5-(difluoromethoxy)-6-ethoxypyridin-2-yl)-2-(methylsulfonyl)ethyl)-7-methyl-6-(o-methylphenyl)-1H-imidazo[4,5-b]pyridin-2(3H)-one]
PDE4 A1 inhibitory effect at 20 nM [1]: +
PDE4 D2 inhibitory effect at 20 nM [2]: +
PDE4 B1 inhibitory effect at 20 nM [3]: +

CCOc1nc([C@H](CS(C)(=O)=O)n2c(=O)[nH]c3c(C)c(-c4ccc(F)cc4)cnc32)ccc1OC [Ex. 7, (R)-3-(1-(6-ethoxy-5-methoxypyridin-2-yl)-2-(methylsulfonyl)ethyl)-6-(4-fluorophenyl)-7-methyl-1H-imidazo[4,5-b]pyridin-2(3H)-one]
PDE4 A1 inhibitory effect at 20 nM [1]: −
PDE4 D2 inhibitory effect at 20 nM [2]: −
PDE4 B1 inhibitory effect at 20 nM [3]: −

CCOc1nc([C@@H](CS(C)(=O)=O)n2c(=O)n(C)c3cc(-c4ccccc4)ccc32)ccc1OC [Ex. 131, (S)-1-(1-(6-ethoxy-5-methoxypyridin-2-yl)-2-(methylsulfonyl)ethyl)-5-phenyl-3-methyl-1H-benzo[d]imidazol-2(3H)-one]
PDE4 A1 inhibitory effect at 20 nM [1]: +
PDE4 D2 inhibitory effect at 20 nM [2]: +
PDE4 B1 inhibitory effect at 20 nM [3]: +

CCOc1nc([C@H](CS(C)(=O)=O)n2c(=O)[nH]c3c(C)c(-c4ccccc4)cnc32)ccc1OC [Ex. 5, (R)-3-(1-(6-ethoxy-5-methoxypyridin-2-yl)-2-(methylsulfonyl)ethyl)-7-methyl-6-phenyl-1H-imidazo[4,5-b]pyridin-2(3H)-one]
PDE4 A1 inhibitory effect at 20 nM [1]: −
PDE4 D2 inhibitory effect at 20 nM [2]: −
PDE4 B1 inhibitory effect at 20 nM [3]: −

CCOc1nc([C@@H](CS(C)(=O)=O)n2c(=O)[nH]c3cc(-c4ccc(F)cc4C)ccc32)ccc1OC [Ex. 169, (S)-5-(4-fluoro-2-methylphenyl)-1-(1-(6-ethoxy-5-methoxypyridin-2-yl)-2-(methylsulfonyl)ethyl)-1H-benzo[d]imidazol-2(3H)-one]
PDE4 A1 inhibitory effect at 20 nM [1]: +
PDE4 D2 inhibitory effect at 20 nM [2]: +
PDE4 B1 inhibitory effect at 20 nM [3]: +

CCOc1nc([C@@H](CS(C)(=O)=O)n2c(=O)[nH]c3c(-c4ccccc4C)cccc32)ccc1OC [Ex. 204, (S)-1-(1-(6-ethoxy-5-methoxypyridin-2-yl)-2-(methylsulfonyl)ethyl)-4-(o-methylphenyl)-1H-benzo[d]imidazol-2(3H)-one]
PDE4 A1 inhibitory effect at 20 nM [1]: +
PDE4 D2 inhibitory effect at 20 nM [2]: +
PDE4 B1 inhibitory effect at 20 nM [3]: +

CCOc1nc([C@@H](CS(C)(=O)=O)n2c(=O)[nH]c3cc(-c4ccc(F)cc4)ccc32)ccc1OC [Ex. 135, (S)-1-(1-(6-ethoxy-5-methoxypyridin-2-yl)-2-(methylsulfonyl)ethyl)-5-(4-fluorophenyl)-1H-benzo[d]imidazol-2(3H)-one]
PDE4 A1 inhibitory effect at 20 nM [1]: +
PDE4 D2 inhibitory effect at 20 nM [2]: +
PDE4 B1 inhibitory effect at 20 nM [3]: +
